This note sets out measurements from PMC6072100, “Exploring the links between peptoid antibacterial activity and toxicity” (MedChemComm, 2017).

Each structure is given as a SMILES string. Values joined by “and” are separate entries in the source; they are usually repeats but may differ in a detail not shown here. Equal entries are not always repeated. Where two headings read alike, the source gives them in different places. Square brackets hold non-standard residues; d marks the D form. Peptide text beside a SMILES is read from it. Gly(N-2-aminoethyl) = NCCNCC(=O)O; Nspe = C[C@H](NCC(=O)O)c1ccccc1; Nphe = O=C(O)CNCc1ccccc1

Assay type in all cases: cell-based
In test [1] the test system is Escherichia coli K-12 wild-type strain (W3110/ATCC27325). To be noted: for MIC E. coli: lowest concentration completely inhibiting growth, 37 °C, 16 h, range 2–100 μM. A digest of the protocol: (§1)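 Peptoids (DMSO stock, diluted in Iso-sensitest broth) are serially halved to give 2–100 µM final in wells with equal volume of bacterial inoculum, standardised to 0.5 McFarland then diluted 10×. After 16 h at 37 °C with shaking, absorbance gives growth; triplicates.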

Test [2] relates to Staphylococcus aureus (3R7089 strain Oxford/ATCC9144). To be noted: lowest concentration completely inhibiting growth, 37 °C, 16 h; range 2–100 μM. A digest of the protocol: as §1
The test system of test [3] is Pseudomonas aeruginosa PA01 (ATCC 15692). A digest of the protocol:
as §1

Test [4] has as its system Staphylococcus epidermidis (laboratory strain from clinical isolate). To be noted: lowest concentration completely inhibiting growth, 37 °C, 16 h; range 2–100 μM. A digest of the protocol:
as §1

[5] abbreviates: lowest concentration completely inhibiting growth, 37 °C, 16 h, range 2–100 μM.

`C[C@@H](c1ccccc1)N(CC(N)=O)C(=O)CN(Cc1ccc(F)cc1)C(=O)CN(CCCCN)C(=O)CN(C(=O)CN(Cc1ccc(F)cc1)C(=O)CN(CCCCN)C(=O)CN(C(=O)CN(Cc1ccc(F)cc1)C(=O)CNCCCCN)[C@@H](C)c1ccccc1)[C@@H](C)c1ccccc1` [Peptoid 27, (NLysNpfbNspe)3]: the “MIC E. coli” value in test [1] amounted to 25 µM. Moreover, the “MIC S. aureus” value in test [2] worked out at 3 µM. Besides, the “MIC P. aeruginosa” value in test [3] (setting [5]) amounted to 25 µM. Further, the “MIC S. epidermidis” value in test [4] turned out to be 2 µM.
With `CCCCCN(CC(=O)N(CC(=O)N(CC(=O)N(CCCCN)CC(=O)N(CC(=O)N(CC(N)=O)[C@@H](C)c1ccccc1)[C@@H](C)c1ccccc1)[C@@H](C)c1ccccc1)[C@@H](C)c1ccccc1)C(=O)CN(C(=O)CN(C(=O)CN(CCCCN)C(=O)CN(C(=O)CN(C(=O)CNCCCCN)[C@@H](C)c1ccccc1)[C@@H](C)c1ccccc1)[C@@H](C)c1ccccc1)[C@@H](C)c1ccccc1` [Peptoid 32, (NLysNspeNspe)2(NamyNspeNspe)(NLysNspeNspe)], the “MIC E. coli” value in test [1] is more than 100 µM. In addition, the “MIC S. aureus” value in test [2] amounted to 6 µM. Besides, the “MIC P. aeruginosa” value in test [3] (ATCC 15692, 16 h) was more than 100 µM; in test [3] (setting [5]), 100 µM. The “MIC S. epidermidis” value in test [4] was 2 µM.
For the compound `NCCNCC(=O)N(CC(=O)N(CC(=O)N(CCN)CC(=O)N(CC(=O)N(CC(=O)N(CCN)CC(=O)N(CC(=O)N(CC(=O)N(CCN)CC(=O)N(CC(=O)N(CC(N)=O)Cc1ccccc1)Cc1ccccc1)Cc1ccccc1)Cc1ccccc1)Cc1ccccc1)Cc1ccccc1)Cc1ccccc1)Cc1ccccc1` [Peptoid 7, (NaeNpheNphe)4] (H-[Gly(N-2-aminoethyl)][Nphe][Nphe][Gly(N-2-aminoethyl)][Nphe][Nphe][Gly(N-2-aminoethyl)][Nphe][Nphe][Gly(N-2-aminoethyl)][Nphe][Nphe]-NH2), the “MIC E. coli” value in test [1] amounted to 13 µM. In addition, the “MIC S. aureus” value in test [2] worked out at 2 µM. Further, the “MIC P. aeruginosa” value in test [3] (setting [5]) is 50 µM. In addition, in test [4], the “MIC S. epidermidis” value is 6 µM.
In the case of `C[C@@H](c1ccccc1)N(CC(N)=O)C(=O)CN(C(=O)CN(CCN)C(=O)CN(C(=O)CN(C(=O)CN(CCN)C(=O)CN(C(=O)CN(C(=O)CN(CCN)C(=O)CN(C(=O)CN(C(=O)CNCCN)[C@@H](C)c1ccccc1)[C@@H](C)c1ccccc1)[C@@H](C)c1ccccc1)[C@@H](C)c1ccccc1)[C@@H](C)c1ccccc1)[C@@H](C)c1ccccc1)[C@@H](C)c1ccccc1` [Peptoid 16, (NaeNspeNspe)4] (H-[Gly(N-2-aminoethyl)][Nspe][Nspe][Gly(N-2-aminoethyl)][Nspe][Nspe][Gly(N-2-aminoethyl)][Nspe][Nspe][Gly(N-2-aminoethyl)][Nspe][Nspe]-NH2), in test [1], the “activity against E. coli (in words)” value is reported as “negligible activity”; the “MIC E. coli” value is 100 µM and > 100 µM. Besides, the “MIC S. aureus” value in test [2] stood at 2 µM. Besides, the “MIC P. aeruginosa” value in test [3] (setting [5]) amounted to 50 µM. Also, in test [4], the “MIC S. epidermidis” value stood at 2 µM.
